Read-outs that look alike come from different tables or passages of the source.
Assays:
NCI-H1299 cells = experiment: MTT based cell viability assay on NCI-H1299 cells; conditions: Homo sapiens, read-out: IC50, growth inhibition on NCI-H1299 cells
Procedure, shortened: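 NCI-H1299 cells (1000/well) were plated overnight, then given a seven-point serial compound dilution plus DMSO control for 3 d at 37 °C, 5% CO2. Viability was read by MTT (0.5 mg/mL, 4 h, DMSO-solubilised) at 552/630/690 nm. IC50 came from a sigmoidal fit of survival versus concentration.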

Wee1 kinase (h) = Wee1 kinase (h) (Homo sapiens, UniProt P30291); experiment: Wee1 kinase (h) detection method, [γ-33P]-ATP filter assay; assay type: biochemical; conditions: 10 μM ATP, 40 minutes at room temperature
Procedure, shortened: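 Radiometric filter-binding assay with human Wee1 in 20 mM Tris/HCl pH 8.5, 0.2 mM EDTA, 500 μM peptide substrate, 10 mM Mg acetate, 10 μM [γ-33P]-ATP; compounds at final 1, 0.1 or 0.01 μM. Reaction 40 min at room temperature, stopped with 0.5% phosphoric acid, spotted on P30 filtermat, scintillation counted, duplicates.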

[1] = tested on: patients with advanced solid tumors; conditions: cited from earlier work
LoVo cells = experiment: MTT based cell viability assay on LoVo cells; conditions: Homo sapiens, 72 h, read-out: IC50, growth inhibition on LoVo cells
[2] = 72 h, NCI-H1299 cells, 3 d, MTT
[3] = of 176 evaluable patients, alone or in combination with chemotherapy

Chain of Wee1 kinase (h) (P30291 whole entry): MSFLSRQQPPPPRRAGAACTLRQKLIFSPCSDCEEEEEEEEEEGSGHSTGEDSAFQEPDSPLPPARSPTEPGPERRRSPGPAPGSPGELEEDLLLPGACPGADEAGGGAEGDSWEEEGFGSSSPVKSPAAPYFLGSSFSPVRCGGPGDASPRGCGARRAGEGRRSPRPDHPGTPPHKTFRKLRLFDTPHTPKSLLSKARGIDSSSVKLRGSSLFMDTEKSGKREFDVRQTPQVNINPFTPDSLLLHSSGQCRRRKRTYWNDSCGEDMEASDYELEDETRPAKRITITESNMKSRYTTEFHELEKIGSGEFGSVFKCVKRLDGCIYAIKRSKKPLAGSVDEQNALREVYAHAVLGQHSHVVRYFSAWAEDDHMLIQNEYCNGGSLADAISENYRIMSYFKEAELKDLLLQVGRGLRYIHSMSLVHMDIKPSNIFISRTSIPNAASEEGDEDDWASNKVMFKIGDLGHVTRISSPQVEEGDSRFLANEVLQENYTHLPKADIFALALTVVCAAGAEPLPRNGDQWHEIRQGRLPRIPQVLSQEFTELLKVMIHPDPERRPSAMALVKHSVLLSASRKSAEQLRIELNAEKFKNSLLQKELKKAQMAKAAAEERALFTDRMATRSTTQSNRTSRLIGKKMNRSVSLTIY

C=CCn1c(=O)c2cnc(Nc3ccc(N4CCN(C)CC4)cc3)nc2n1-c1cccc(C(C)(C)O)n1 [AZD1775]
IC50 (NCI-H1299 cells; [2]): 116 nM
Inh. (%) of Wee1 kinase (Wee1 kinase (h); C 0.01 μm): 28%
response rate ([1]; TP53 wild-type patients (n=33)): 12%
safety and tolerability ([1]; alone or in combination with chemotherapy, at a certain dose): safe and tolerable
partial response [1, 3]: 10%
stable disease as the best response [1, 3]: 53%
response rate ([1]; patients with TP53 mutation (n=19)): 21%
IC50 (LoVo cells; LoVo cells, 3 d, MTT): 154 nM

Cc1cc(Nc2ncc3c(=O)n(-c4c(Cl)cccc4Br)n4ccnc4c3n2)ccc1N1CCC(N(C)C)CC1 [Example 49, 6-(2-bromo-6-chlorophenyl)-2-((3-methyl-4-(4-(dimethylamino)piperidin-1-yl)phenyl)amino)imidazo[1,2-b]pyrimido[4,5-d]pyridazin-5(6H)-one]
IC50 (NCI-H1299 cells; [2]): 337 nM
Inh. (%) of Wee1 kinase (Wee1 kinase (h); C 1 μm): 91%
IC50 (LoVo cells; LoVo cells, 3 d, MTT): 272 nM

CN(C)C1CCN(c2ccc(Nc3ncc4c(=O)n(-c5c(Cl)cccc5Cl)n5ccnc5c4n3)cc2Cl)CC1 [Example 35, 6-(2,6-dichlorophenyl)-2-((3-chloro-4-(4-(dimethylamino)piperidin-1-yl)phenyl)amino)imidazo[1,2-b]pyrimido[4,5-d]pyridazin-5(6H)-one]
IC50 (NCI-H1299 cells; NCI-H1299, 72 h): 182 nM
Inh. (%) of Wee1 kinase (Wee1 kinase (h); C 0.01 μm): 4%
Inh. (%) of Wee1 kinase (Wee1 kinase (h); C 1 μm): 96%
IC50 (LoVo cells; LoVo): 302 nM

Cc1cc(Nc2ncc3c(=O)n(-c4c(C)cccc4Cl)n4ccnc4c3n2)cc(Cl)c1N1CCN(C)CC1 [Example 55, 6-(2-chloro-6-methylphenyl)-2-((3-chloro-5-methyl-4-(4-methylpiperazin-1-yl)phenyl)amino)imidazo[1,2-b]pyrimido[4,5-d]pyridazin-5(6H)-one]
IC50 (NCI-H1299 cells; [2]): 663 nM
Inh. (%) of Wee1 kinase (Wee1 kinase (h); C 0.01 μm): 0%
Inh. (%) of Wee1 kinase (Wee1 kinase (h); C 0.1 μm): 46%
Inh. (%) of Wee1 kinase (Wee1 kinase (h); C 1 μm): 89%
IC50 (LoVo cells; LoVo cells, 3 d, MTT): 560 nM

Cc1cc(Nc2ncc3c(=O)n(-c4c(F)cccc4Br)n4ccnc4c3n2)ccc1N1CCC(N(C)C)CC1 [Example 45, 6-(2-bromo-6-fluorophenyl)-2-((3-methyl-4-(4-(dimethylamino)piperidin-1-yl)phenyl)amino)imidazo[1,2-b]pyrimido[4,5-d]pyridazin-5(6H)-one]
IC50 (NCI-H1299 cells; [2]): 270 nM
Inh. (%) of Wee1 kinase (Wee1 kinase (h); C 0.01 μm): 12%
IC50 (LoVo cells; LoVo cells, 3 d, MTT): 333 nM
